Source: PMC3914206

Key:
Format in all cases: binding
panel of 442 kinases [1] = biological target: T1, panel of 442 kinases (Homo sapiens, UniProt P16591); conditions: Compound Concentration 10 µM
T1 construct: purchased KINOMEscan
Text: (§1) We assessed the selectivity of members of this scaffold using the KINOMEscan methodology across a near comprehensive panel of 442 kinases [[18,27]].

panel of 442 kinases [2] = biological target: T2, panel of 442 kinases (Homo sapiens, UniProt Q8TDX7); conditions: Compound Concentration 10 µM
T2 construct: purchased KINOMEscan
Text: as §1

panel of 442 kinases [3] = biological target: T3, panel of 442 kinases (Homo sapiens, UniProt Q13164); conditions: Compound Concentration 10 µM
T3 construct: purchased KINOMEscan
Text: as §1

panel of 442 kinases [4] = biological target: T4, panel of 442 kinases (Homo sapiens, UniProt P37173); conditions: kinase TGFBR2; compound concentration 10 µM
T4 construct: purchased KINOMEscan
Text: as §1

T1 sequence (P16591 whole entry): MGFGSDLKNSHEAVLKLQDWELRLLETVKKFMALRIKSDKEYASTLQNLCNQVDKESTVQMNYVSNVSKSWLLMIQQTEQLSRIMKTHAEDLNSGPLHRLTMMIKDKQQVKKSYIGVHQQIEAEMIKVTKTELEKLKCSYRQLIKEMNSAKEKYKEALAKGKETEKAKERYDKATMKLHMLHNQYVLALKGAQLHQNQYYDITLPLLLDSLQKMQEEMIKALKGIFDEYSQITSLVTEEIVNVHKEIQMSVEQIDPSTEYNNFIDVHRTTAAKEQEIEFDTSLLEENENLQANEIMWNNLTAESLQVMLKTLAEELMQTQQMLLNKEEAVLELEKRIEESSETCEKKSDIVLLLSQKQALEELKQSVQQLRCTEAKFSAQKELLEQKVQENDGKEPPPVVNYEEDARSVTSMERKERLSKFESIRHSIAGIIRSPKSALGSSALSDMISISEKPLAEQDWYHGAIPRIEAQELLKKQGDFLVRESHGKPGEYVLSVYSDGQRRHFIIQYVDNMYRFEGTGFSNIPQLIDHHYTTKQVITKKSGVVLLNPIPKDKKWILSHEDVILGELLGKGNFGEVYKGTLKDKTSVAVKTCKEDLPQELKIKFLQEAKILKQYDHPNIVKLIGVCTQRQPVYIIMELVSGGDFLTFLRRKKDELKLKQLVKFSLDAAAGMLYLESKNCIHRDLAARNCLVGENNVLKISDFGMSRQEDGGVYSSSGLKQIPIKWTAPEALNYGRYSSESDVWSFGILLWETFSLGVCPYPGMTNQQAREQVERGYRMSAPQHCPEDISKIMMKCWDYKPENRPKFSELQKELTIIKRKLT
T3 sequence (Q13164 whole entry): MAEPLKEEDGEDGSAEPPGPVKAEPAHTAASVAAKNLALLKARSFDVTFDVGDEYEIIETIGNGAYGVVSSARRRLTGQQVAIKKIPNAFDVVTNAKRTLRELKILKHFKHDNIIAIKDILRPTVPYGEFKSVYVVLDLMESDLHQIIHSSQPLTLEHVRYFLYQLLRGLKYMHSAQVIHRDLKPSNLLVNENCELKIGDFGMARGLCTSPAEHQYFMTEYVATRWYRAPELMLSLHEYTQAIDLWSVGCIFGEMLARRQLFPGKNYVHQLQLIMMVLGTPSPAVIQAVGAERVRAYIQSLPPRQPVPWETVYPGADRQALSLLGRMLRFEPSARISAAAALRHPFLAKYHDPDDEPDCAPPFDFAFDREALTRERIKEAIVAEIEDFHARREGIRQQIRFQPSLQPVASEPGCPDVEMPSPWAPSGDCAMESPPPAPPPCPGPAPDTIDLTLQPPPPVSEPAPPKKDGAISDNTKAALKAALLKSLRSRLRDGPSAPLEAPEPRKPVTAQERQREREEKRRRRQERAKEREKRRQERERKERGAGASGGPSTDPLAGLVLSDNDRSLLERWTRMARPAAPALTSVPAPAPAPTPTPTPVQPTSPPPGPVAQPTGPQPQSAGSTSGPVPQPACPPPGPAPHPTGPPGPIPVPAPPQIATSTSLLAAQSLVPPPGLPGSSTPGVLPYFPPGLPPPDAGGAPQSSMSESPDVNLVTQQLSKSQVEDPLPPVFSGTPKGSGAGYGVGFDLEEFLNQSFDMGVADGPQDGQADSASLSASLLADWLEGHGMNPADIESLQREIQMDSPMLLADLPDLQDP
T2 sequence (Q8TDX7 whole entry): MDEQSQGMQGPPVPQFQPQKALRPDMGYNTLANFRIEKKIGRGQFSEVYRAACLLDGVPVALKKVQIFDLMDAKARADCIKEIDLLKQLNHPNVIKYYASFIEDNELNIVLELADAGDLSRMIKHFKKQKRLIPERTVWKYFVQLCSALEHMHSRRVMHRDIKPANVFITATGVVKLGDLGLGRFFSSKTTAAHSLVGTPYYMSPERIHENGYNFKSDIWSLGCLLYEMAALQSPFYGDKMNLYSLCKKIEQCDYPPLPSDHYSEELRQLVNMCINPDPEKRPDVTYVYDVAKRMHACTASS
T4 sequence (P37173 23-567): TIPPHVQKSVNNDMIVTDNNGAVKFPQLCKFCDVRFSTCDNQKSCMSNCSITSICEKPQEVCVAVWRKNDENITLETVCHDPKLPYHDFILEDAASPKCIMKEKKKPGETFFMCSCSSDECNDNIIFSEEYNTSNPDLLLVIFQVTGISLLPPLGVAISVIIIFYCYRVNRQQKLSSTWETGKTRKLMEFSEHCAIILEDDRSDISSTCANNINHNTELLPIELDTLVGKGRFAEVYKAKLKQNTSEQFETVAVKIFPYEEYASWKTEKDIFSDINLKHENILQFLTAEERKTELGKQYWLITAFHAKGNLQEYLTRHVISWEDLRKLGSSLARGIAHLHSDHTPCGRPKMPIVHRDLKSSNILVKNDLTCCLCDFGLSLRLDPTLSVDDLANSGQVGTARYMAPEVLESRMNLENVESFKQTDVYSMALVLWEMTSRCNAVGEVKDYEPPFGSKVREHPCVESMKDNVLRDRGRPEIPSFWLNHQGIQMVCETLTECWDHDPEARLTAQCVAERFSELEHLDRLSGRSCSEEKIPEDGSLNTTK

SMILES	KINOMEscan: FER (panel of 442 kinases [1])	KINOMEscan: NEK7 (panel of 442 kinases [2])	KINOMEscan: ERK5 (panel of 442 kinases [3])	% Ctrl, TGFBR2 (panel of 442 kinases [4]) [% Ctrl]
COc1cc(C(=O)N2CCC(N3CCN(C)CC3)CC2)ccc1Nc1ncc2c(n1)N(C)c1ccccc1C(=O)N2C [15 (LRRK2-IN-1)]	51	100	0.05	100
CCOc1cc(C(=O)N2CCC(N3CCN(C)CC3)CC2)ccc1Nc1ncc2c(n1)N(C1CCCC1)c1ccccc1C(=O)N2C [Compound 26]	96	100	0.1	100
COc1cc(C(=O)N2CCC(N3CCN(C)CC3)CC2)ccc1Nc1ncc2c(n1)N1CCc3cccc(c31)C(=O)N2C [Compound 24]	64	–	–	100
COc1cc(C(=O)N2CCC(N3CCN(C)CC3)CC2)ccc1Nc1ncc2c(n1)N(C1CCCC1)c1ccccc1C(=O)N2C [Compound 25, 11-cyclopentyl-2-((2-methoxy-4-(4-(4-methylpiperazin-1-yl)piperidine-1-carbonyl)phenyl)amino)-5-methyl-5H-benzo[e]pyrimido[5,4-b][1,4]diazepin-6(11H)-one]	38	100	0.05	100
